Measured values reported in patent publication US20160287589A1, “SUBSTITUTED-IMIDAZOPYRIDAZINES” (BAYER PHARMA AKTIENGESELLSCHAFT, priority 2013, published 2016).

Tests used:
MKNK1 [1] = molecular target: T1, MKNK1 (Homo sapiens, UniProt Q9BUB5, T385D); assay: MKNK1 kinase high ATP assay (TR-FRET-based); format: biochemical; conditions: 2 mM ATP, 15 min preincubation
T1 construct: GST (N); purchased Carna Biosciences 02-145; host or cells: insect cells (baculovirus expression system)
Procedure: MKNK1 Kinase High ATP Assay
MKNK1-inhibitory activity at high ATP of compounds of the present invention after their preincubation with MKNK1 was quantified employing the TR-FRET-based MKNK1 high ATP assay as described in the following paragraphs.
(§1) A recombinant fusion protein of Glutathione-S-Transferase (GST, N-terminally) and human full-length MKNK1 (amino acids 1-424 and T344D of accession number BAA 19885.1), expressed in insect cells using baculovirus expression system and purified via glutathione sepharose affinity chromatography, was purchased from Carna Biosciences (product no 02-145) and used as enzyme. As substrate for the kinase reaction the biotinylated peptide biotin-Ahx-IKKRKLTRRKSLKG (C-terminus in amide form) was used, which can be purchased e.g. from the company Biosyntan (Berlin-Buch, Germany).
(§2) For the assay 50 nL of a 100 fold concentrated solution of the test compound in DMSO was pipetted into a black low volume 384 well microtiter plate (Greiner Bio-One, Frickenhausen, Germany), 2 μL of a solution of MKNK1 in aqueous assay buffer [50 mM HEPES pH 7.5, 5 mM magnesium chloride, 1.0 mM dithiothreitol, 0.005% (v/v) Nonidet-P40 (Sigma)] was added and the mixture was incubated for 15 min at 22° C. to allow pre-binding of the test compounds to the enzyme before the start of the kinase reaction. Then the kinase reaction was started by the addition of 3 μL of a solution of adenosine-tri-phosphate (ATP, 3.3 mM=>final conc. in the 5 μL assay volume is 2 mM) and substrate (0.1 μM=>final conc. in the 5 μL assay volume is 0.06 μM) in assay buffer and the resulting mixture was incubated for a reaction time of 30 min at 22° C. The concentration of MKNK1 was adjusted depending of the activity of the enzyme lot and was chosen appropriate to have the assay in the linear range, typical concentrations were in the range of 0.003 μg/mL. The reaction was stopped by the addition of 5 μL of a solution of TR-FRET detection reagents (5 nM streptavidine-XL665 [Cisbio Bioassays, Codolet, France] and 1 nM anti-ribosomal protein S6 (pSer236)-antibody from Invitrogen [#44921G] and 1 nM LANCE EU-W1024 labeled ProteinG [Perkin-Elmer, product no. AD0071]) in an aqueous EDTA-solution (100 mM EDTA, 0.1% (w/v) bovine serum albumin in 50 mM HEPES pH 7.5).
(§3) The resulting mixture was incubated for 1 h at 22° C. to allow the formation of complex between the phosphorylated biotinylated peptide and the detection reagents. Subsequently the amount of phosphorylated substrate was evaluated by measurement of the resonance energy transfer from the Eu-chelate to the streptavidine-XL. Therefore, the fluorescence emissions at 620 nm and 665 nm after excitation at 350 nm were measured in a TR-FRET reader, e.g. a Rubystar (BMG Labtechnologies, Offenburg, Germany) or a Viewlux (Perkin-Elmer). The ratio of the emissions at 665 nm and at […] was taken as the measure for the amount of phosphorylated substrate. The data were normalised (enzyme reaction without inhibitor=0% inhibition, all other assay components but no enzyme=100% inhibition).

MKNK1 [2] = molecular target: T1, MKNK1; assay: MKNK1 kinase assay (MKNK1 TR-FRET assay); format: biochemical; conditions: 10 μM ATP, 15 min preincubation
Text: MKNK1-inhibitory activity of compounds of the present invention was quantified employing the MKNK1 TR-FRET assay as described in the following paragraphs.
as §1, with “human full-lengt” for “human full-length”, “was used” for “was used,”, “e.g. form” for “e.g. from”
as §2, with “Then the kinase reaction was started by the addition of 3 μL of a solution of adenosine-tri-phosphate (ATP, 3.3 mM=>final conc. in the 5 μL assay volume is 2 mM) and substrate (0.1 μM=>final conc. in the 5 μL assay volume is 0.06 μM) in assay buffer and the resulting mixture was incubated for a reaction time of 30 min at 22° C.” left out, “[…].” for “0.003 μg/mL.”
as §3

T1 sequence (Q9BUB5 1-424 isoform Q9BUB5-2 T344D): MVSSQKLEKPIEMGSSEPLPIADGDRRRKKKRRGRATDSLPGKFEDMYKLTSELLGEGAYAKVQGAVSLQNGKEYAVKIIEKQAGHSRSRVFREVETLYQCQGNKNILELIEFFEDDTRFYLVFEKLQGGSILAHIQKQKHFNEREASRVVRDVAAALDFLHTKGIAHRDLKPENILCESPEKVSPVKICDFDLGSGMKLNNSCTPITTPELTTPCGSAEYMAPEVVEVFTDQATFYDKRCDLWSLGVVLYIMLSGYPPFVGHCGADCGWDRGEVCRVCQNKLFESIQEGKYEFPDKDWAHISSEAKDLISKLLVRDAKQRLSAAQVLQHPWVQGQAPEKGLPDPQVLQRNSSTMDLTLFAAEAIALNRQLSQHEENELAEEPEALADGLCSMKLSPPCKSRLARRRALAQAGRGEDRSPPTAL

Structure (SMILES) | IC50 (MKNK1 [1]; Table 2b) [nM] | IC50 (MKNK1 [2]; Table 1b) [nM] | IC50 (MKNK1 [1]; Table 2c) [nM] | IC50 (MKNK1 [2]; Table 1c) [nM] | other results
COC[C@H]1CCCN1c1cccc2oc(-c3cnc4ccc(OCCCS(C)(=O)=O)nn34)cc12 [II-6, 3-{4-[(2R)-2-(Methoxymethyl)pyrrolidin-1-yl]-1-benzofuran-2-yl}-6-[3-(methyl-sulfonyl)propoxy]imidazo[1,2-b]pyridazine] | 14 | 7.1 | – | – | –
C[C@@H]1COCCN1c1cccc2oc(-c3cnc4ccc(O[C@H]5C[C@H](N)C5)nn34)cc12 [II-50, trans-3-[(3-{4-[(3R)-3-methylmorpholin-4-yl]-1-benzofuran-2-yl}imidazo[1,2-b]pyridazin-6-yl)oxy]cyclobutanamine] | 50.6 | 39.1 | – | – | –
COC[C@H]1CCCN1c1cccc2oc(-c3cnc4ccc(OC[C@H]5CNCC(=O)N5)nn34)cc12 [II-48, (6R)-6-{[(3-{4-[(2R)-2-(methoxymethyl)pyrrolidin-1-yl]-1-benzofuran-2-yl}imidazo[1,2-b]pyridazin-6-yl)oxy]methyl}piperazin-2-one] | 3.9 | 7 | – | – | –
C[C@@H]1COCCN1c1cccc2oc(-c3cnc4ccc(OC[C@@H](C)N)nn34)cc12 [II-37, (2R)-1-[(3-{4-[(3R)-3-methylmorpholin-4-yl]-1-benzofuran-2-yl}imidazo[1,2-b]pyridazin-6-yl)oxy]propan-2-amine] | 69.1 | 43.9 | – | – | –
O=C(N[C@H]1C[C@H](Oc2ccc3ncc(-c4cc5ccccc5o4)n3n2)C1)C1CC1 [Example I-5, N-(trans-3-{[3-(1-Benzofuran-2-yl)imidazo[1,2-b]pyridazin-6-yl]oxy}cyclobutyl)-cyclopropanecarboxamide] | – | – | – | – | IC50 (MKNK1 [1]; Table 2a): 8.9 nM; IC50 (MKNK1 [2]; Table 1a): 5.3 nM
COc1nccc2oc(-c3cnc4ccc(OC[C@H]5CN(C(=O)C(C)(C)C)CCO5)nn34)cc12 [IV-11, 1-[(2R)-2-({[3-(4-Methoxyfuro[3,2-c]pyridin-2-yl)imidazo[1,2-b]pyridazin-6-yl]oxy}-methyl)morpholin-4-yl]-2,2-dimethylpropan-1-one] | – | – | – | – | IC50 (MKNK1 [1]; Table 2d): 25 nM; IC50 (MKNK1 [2]; Table 1d): 6 nM
C[C@@H]1CN(c2cccc3oc(-c4cnc5ccc(OC[C@@H]6CCC(=O)N6)nn45)cc23)CCO1 [II-72, (5S)-5-{[(3-{4-[(2R)-2-methylmorpholin-4-yl]-1-benzofuran-2-yl}imidazo[1,2-b]pyridazin-6-yl)oxy]methyl}pyrrolidin-2-one] | 33 | 15.7 | – | – | –
CC1(C)CN(c2cccc3oc(-c4cnc5ccc(OC[C@@H]6CCC(=O)N6)nn45)cc23)CCN1 [II-36, (5S)-5-[({3-[4-(3,3-dimethylpiperazin-1-yl)-1-benzofuran-2-yl]imidazo[1,2-b]pyridazin-6-yl}oxy)methyl]pyrrolidin-2-one] | 1 | 2.3 | – | – | –
COc1ccc2ncc(-c3cc4c(N5CCNCC5)cccc4o3)n2n1 [II-21, 6-Methoxy-3-[4-(piperazin-1-yl)-1-benzofuran-2-yl]imidazo[1,2-b]pyridazine] | 0.3 | 0.3 | – | – | –
O=C(C1CCCO1)N1CCC[C@H]1CCOc1ccc2ncc(-c3cc4ccccc4o3)n2n1 (stereo partly drawn) [Example I-53, [(2S)-2-(2-{[3-(1-Benzofuran-2-yl)imidazo[1,2-b]-pyridazin-6-yl]oxy}ethyl)pyrrolidin-1-yl](tetrahydrofuran-2-yl)methanone] | – | – | – | – | IC50 (MKNK1 [1]; Table 2a): 3.5 nM; IC50 (MKNK1 [2]; Table 1a): 2.4 nM
Cn1ccc(C(=O)NCCOc2ccc3ncc(-c4cc5ccccc5o4)n3n2)n1 [Example I-79, N-(2-{[3-(1-Benzofuran-2-yl)imidazo[1,2-b]-pyridazin-6-yl]oxy}ethyl)-1-methyl-1H-pyrazole-3-carboxamide] | – | – | – | – | IC50 (MKNK1 [1]; Table 2a): 25.5 nM; IC50 (MKNK1 [2]; Table 1a): 10.1 nM

The next lines start with results.

IC50 (MKNK1 [1]; Table 2b) [nM] | IC50 (MKNK1 [2]; Table 1b) [nM] | IC50 (MKNK1 [1]; Table 2c) [nM] | IC50 (MKNK1 [2]; Table 1c) [nM] | Structure (SMILES) | other results
– | – | 84.1 | 18.6 | C[C@H](N)COc1ccc2ncc(-c3cc4c(N5CC[C@H](N(C)C)C5)nccc4o3)n2n1 [III-115, (3S)-1-[2-(6-{[(2S)-2-aminopropyl]oxy}imidazo [1,2-b]pyridazin-3-yl)furo[3,2-c]pyridin-4-yl]-N,N-dimethylpyrrolidin-3-amine] | –
– | – | 114 | 27 | C[C@H](N)COc1ccc2ncc(-c3cc4c(N5CCN(C(C)(C)C)CC5)nccc4o3)n2n1 [III-116, (2S)-1-({3-[4-(4-tert-butylpiperazin-1-yl)furo[3,2-c]pyridin-2-yl]imidazo[1,2-b]pyridazin-6-yl}oxy)propan-2-amine] | –
– | – | 0.5 | 0.8 | CCN(CCOC)c1nccc2oc(-c3cnc4ccc(OC[C@H]5CNCC(=O)N5)nn34)cc12 [III-90, (6R)-6-{[(3-{4-[Ethyl(2-methoxyethyl)amino]furo[3,2-c]pyridin-2-yl}imidazo[1,2-b]pyridazin-6-yl)oxy]methyl}piperazin-2-one] | –
– | – | 38.5 | 21.3 | CC(C)(C)OC(=O)N1CCN(c2nccc3oc(-c4cnc5ccc(OCCCS(C)(=O)=O)nn45)cc23)CC1 [III-49, tert-Butyl 4-(2-{6-[3-(methylsulfonyl)propoxy]imidazo[1,2-b]pyridazin-3-yl}furo[3,2-c]pyridin-4-yl)piperazine-1-carboxylate] | –
– | – | 11 | 10.7 | O=C1CC[C@H](COc2ccc3ncc(-c4cc5c(N6CCC[C@@H]6CO)nccc5o4)n3n2)N1 [III-67, (5R)-5-{[(3-{4-[(2R)-2-(Hydroxymethyl)pyrrolidin-1-yl]furo[3,2-c]pyridin-2-yl}imidazo[1,2-b]pyridazin-6-yl)oxy]methyl}pyrrolidin-2-one] | –
– | – | 8.6 | 0.4 | COC[C@H]1CCCN1c1nccc2oc(-c3cnc4ccc(OC[C@H](C)N)nn34)cc12 [III-24, (2S)-1-[(3-{4-[(2R)-2-(Methoxymethyl)pyrrolidin-1-yl]furo[3,2-c]pyridin-2-yl}imidazo[1,2-b]pyridazin-6-yl)oxy]propan-2-amine] | –
– | – | 2.6 | 1.5 | CCN(CCO)c1nccc2oc(-c3cnc4ccc(OC[C@@H]5COCCN5)nn34)cc12 [III-40, 2-[Ethyl(2-{6-[(3S)-morpholin-3-ylmethoxy]imidazo[1,2-b]pyridazin-3-yl}furo[3,2-c]pyridin-4-yl)amino]ethanol] | –
– | – | 63.5 | 15.4 | C[C@H](N)COc1ccc2ncc(-c3cc4c(N5CCCC5)nccc4o3)n2n1 [III-10, (2S)-1-({3-[4-(Pyrrolidin-1-yl)furo[3,2-c]pyridin-2-yl]imidazo[1,2-b]pyridazin-6-yl}oxy)propan-2-amine] | –
